The record followed here is patent US20090215893A1, “Parakeratosis inhibitor, pore-shrinking agent,or rough skin preventing/ameliorating agent, and external composition for skin” (Shiseido Company Ltd, priority 2005, published 2009).

The test system of data set [1] is pores of the cheeks of healthy human males. Briefly: Human pore-shrinking effect (replica assessment of cheek pores). It is filed as in vivo. The conditions noted are these: for Replica assessment (average of n = 5): sample 3 mass %, twice a day for one month, pore size rating 1-13, after application minus before application, control 0.3; for pore-shrinking effect: summary of Table 2, concentrations as in Table 2. As for the experimental part: An experiment was conducted whereby a sample was applied twice a day for one month to the cheeks of healthy human males in groups of 5 men each. Aqueous solutions (containing 15 mass % of ethanol) of 3 mass % of the α-amino acid derivative or a salt thereof were prepared as the evaluation sample. The pH was regulated by hydrochloric acid or sodium hydroxide so as to be 7.0 to 7.5. When sample solubility was low, the solution was prepared accordingly. The control was an aqueous 15% ethanol solution. The sample aqueous solution and control aqueous solution were applied to one half of the face at a time.
A replica was collected before and after continuous application, and changes in the shape of the pores at the same site were observed using a three-dimensional laser scanning microscope. The size of the pores was macroscopically evaluated in 13 steps of 1 through 13 (with the pores becoming larger as the numbers became larger), the difference in the ratings before and after application (after application-before application) was calculated, and the efficacy of each sample was studied using this difference as the replica assessment.

The subject of data set [2] is cheek of a panel of 20 women. Briefly: Sensory irritation tests. It is filed as in vivo, human. Conditions: for Evaluation (sensory irritation, class of average rating): sample 3 mass %, 1 mL on cheek, evaluated for ten minutes, 20 women; for sensory irritation: summary of Table 4, β-alanine at 3%. As for the experimental part: 1 mL of a control aqueous solution and the sample aqueous solution prepared in Example 1 were applied using a cotton swab to the left or right cheek, respectively, of a panel of 20 women, the irritating sensation was evaluated every 30 seconds for ten minutes beginning immediately after application, and a final evaluation was reported. The evaluation of the irritating sensation was based on the following four steps of rating criteria, the average rating was calculated, and the average was classified by the following criteria.
3: Discontinued because of extremely strong irritation, such as stinging sensation, burning sensation, tickling sensation, itching, and the like.
2: Intolerable strong irritation, such as stinging sensation, burning sensation, tickling sensation, itching, and the like.
1: Tolerable with only slight stinging sensation, burning sensation, tickling sensation, itching, and the like.
0: Not particularly irritating.
A: average rating of less than 0.2
B: average rating of 0.2 to less than 1.0
C: average rating of 1.0 to less than 2.0
D: average rating of 2.0 or greater

The test system of data set [3] is back of a hairless mouse (HR-1), 10 mass % oleic acid applied. The experiment in a line: Parakeratosis-inhibiting effect tests: oleic acid applied to hairless mouse back, macroscopic rough skin evaluation and parakeratosis value. The format is in vivo. Conditions: for Macroscopic evaluation (average of four animals) / Parakeratosis value (average of four animals): sample 3 mass %; for Macroscopic evaluation (average of four animals): 100 μL after oleic acid, three days, rough skin score 0.0 (no redness) to 2.0 (control); for Parakeratosis value (average of four animals): tape-stripped stratum corneum, hematoxylin, range 1.0 to 3.0, higher = parakeratosis advanced, control 2.0; for parakeratosis value / parakeratosis-inhibiting effect / rough skin preventing effect, based on stratum corneum peeling and redness: summary of Table 1, concentrations as in Table 1. As for the experimental part: Aqueous solutions (containing 30 mass % of ethanol) of primarily 3 mass % of an α-amino acid derivative or salt thereof were prepared as the evaluation sample. The pH was regulated by hydrochloric acid or sodium hydroxide so as to be 7.0 to 7.5. When sample solubility was low, the solution was prepared accordingly.
100 μL of 10 mass % oleic acid solution (solvent: ethanol) were applied to the back of a hairless mouse (HR-1; Hoshino Laboratory Animals). Then the sample solution (α-amino acid derivative, and the like) was applied 100 μL at a time. This procedure was continued for three days. […] The status of the skin was evaluated in 0.25-point intervals, with skin where the control (control aqueous solution) had been applied being 2.0 and skin where there was no redness being 0.0. At the same time, the stratum corneum at the back of the hairless mouse was peeled off with tape, the nuclei were stained by hematoxylin, and the degree of parakeratosis was observed and evaluated by a parakeratosis value within a range of 1.0 to 3.0 (in 0.25 increments).

The subject of data set [4] is back of hairless mice (HR-1), 10 mass % oleic acid applied. The experiment in a line: Inhibiting effect against rough skin induced by oleic acid application (transepidermal water loss). It is filed as in vivo. Also noted: ΔTEWL value: unit not given here. Conditions: for ΔTEWL value: sample 3 mass %, three days, average of four animals, rough skin worse as value increases, control 12.0; for ΔTEWL value compared with the control aqueous solution / rough skin preventing/ameliorating effect: summary of Table 3, concentrations as in Table 3. As for the experimental part:
In order to investigate the inhibiting effect of α-amino acid derivatives and salts thereof against rough skin induced by oleic acid application, the transepidermal water loss (TEWL value) before and after application was measured, the difference was compared with the control (control aqueous solution), and the effect was determined. Sample preparation and the application method were in accordance with Example 1. The TEWL was determined using the TM210 TEWA Meter (Courage+Khazaka Electronic GmBH).
100 μL of 10 mass % oleic acid (solvent: ethanol) was applied to the back of hairless mice (HR-1, four mice per group). Then a sample solution (α-amino acid derivatives, and the like) was applied 100 μL at a time. This procedure was continued for three days. The following day, the TEWL value of the back was determined and the values of the four animals were averaged. Rough skin became worse as the ΔTEWL value increased.

As for `C[C@H](NC(=O)OCc1ccccc1)C(=O)O` [N-carbobenzoyloxy-L-alanine], in data set [1], the “Replica assessment (average of n = 5)” value is given as −0.9 and the “pore-shrinking effect” value is “seen”. In addition, in data set [2], the “Evaluation (sensory irritation, class of average rating)” value is on record as “A (average rating of less than 0.2)” and the “sensory irritation” value was “no problems”. For the same molecule, in data set [3], the “Macroscopic evaluation (average of four animals)” value (“Macroscopic evaluation” below) came to 1.2; the “Parakeratosis value (average of four animals)” value was found to be 1.3; the “parakeratosis value / parakeratosis-inhibiting effect” value is recorded as “reduced”; the “rough skin preventing effect, based on stratum corneum peeling and redness” value (“rough skin preventing effect, based” for short) is “seen”. In data set [4], the ΔTEWL value is given as 6.9 and the “ΔTEWL value compared with the control aqueous solution / rough skin preventing/ameliorating effect” value is “significantly lower”.

For `O=C(N[C@@H](CO)C(=O)O)OCc1ccccc1` [N-carbobenzoyloxy-L-serine], in data set [1], the “Replica assessment (average of n = 5)” value is reported as −1.2 and the “pore-shrinking effect” value was “seen”. In data set [2], the “Evaluation (sensory irritation, class of average rating)” value was “A (average rating of less than 0.2)” and the “sensory irritation” value is given as “no problems”. Further, in data set [3], the “Macroscopic evaluation” value is 1.2; the “Parakeratosis value (average of four animals)” value came out at 1.1; the “parakeratosis value / parakeratosis-inhibiting effect” value is recorded as “reduced”; the “rough skin preventing effect, based” value is listed as “seen”. For the same molecule, in data set [4], the ΔTEWL value amounted to 6.7 and the “ΔTEWL value compared with the control aqueous solution / rough skin preventing/ameliorating effect” value is “significantly lower”.

Take `C[C@@H](NC1CCCCC1)C(=O)O` [N-cyclohexyl-D-alanine]: in data set [1], the “Replica assessment (average of n = 5)” value is −1.3 and the “pore-shrinking effect” value is “seen”. Besides, in data set [2], the “Evaluation (sensory irritation, class of average rating)” value is “A (average rating of less than 0.2)” and the “sensory irritation” value is “no problems”. Also, in data set [3], the “Macroscopic evaluation” value turned out to be 1.3; the “Parakeratosis value (average of four animals)” value amounted to 1.4; the “parakeratosis value / parakeratosis-inhibiting effect” value is “reduced”; the “rough skin preventing effect, based” value is “seen”. Besides, in data set [4], the ΔTEWL value is 6.9 and the “ΔTEWL value compared with the control aqueous solution / rough skin preventing/ameliorating effect” value is recorded as “significantly lower”.

Turning to `O=C(O)[C@@H](CO)NC1CCCCC1` [N-cyclohexyl-D-serine], in data set [1], the “Replica assessment (average of n = 5)” value is recorded as −1.3 and the “pore-shrinking effect” value is recorded as “seen”. In data set [2], the “Evaluation (sensory irritation, class of average rating)” value was “A (average rating of less than 0.2)” and the “sensory irritation” value is reported as “no problems”. Moreover, in data set [3], the “Macroscopic evaluation” value is on record as 1.3; the “Parakeratosis value (average of four animals)” value came out at 1.2; the “parakeratosis value / parakeratosis-inhibiting effect” value is given as “reduced”; the “rough skin preventing effect, based” value is given as “seen”. Further, in data set [4], the ΔTEWL value turned out to be 6.8 and the “ΔTEWL value compared with the control aqueous solution / rough skin preventing/ameliorating effect” value is listed as “significantly lower”.

Regarding `C[C@H](NC1CCCCC1)C(=O)O` [N-cyclohexyl-L-alanine], in data set [1], the “Replica assessment (average of n = 5)” value is on record as −1.2 and the “pore-shrinking effect” value is on record as “seen”. Besides, in data set [2], the “Evaluation (sensory irritation, class of average rating)” value is reported as “A (average rating of less than 0.2)” and the “sensory irritation” value is reported as “no problems”. Further, in data set [3], the “Macroscopic evaluation” value turned out to be 1.4; the “Parakeratosis value (average of four animals)” value is given as 1.3; the “parakeratosis value / parakeratosis-inhibiting effect” value is listed as “reduced”; the “rough skin preventing effect, based” value is reported as “seen”. Also, in data set [4], the ΔTEWL value is on record as 7.1 and the “ΔTEWL value compared with the control aqueous solution / rough skin preventing/ameliorating effect” value was “significantly lower”.

Consider `O=C(O)[C@H](CO)NC1CCCCC1` [N-cyclohexyl-L-serine], for which, in data set [1], the “Replica assessment (average of n = 5)” value is on record as −1.4 and the “pore-shrinking effect” value is “seen”. For the same molecule, in data set [2], the “Evaluation (sensory irritation, class of average rating)” value is “A (average rating of less than 0.2)” and the “sensory irritation” value is on record as “no problems”. In addition, in data set [3], the “Macroscopic evaluation” value is given as 1.3; the “Parakeratosis value (average of four animals)” value stood at 1.2; the “parakeratosis value / parakeratosis-inhibiting effect” value is reported as “reduced”; the “rough skin preventing effect, based” value is on record as “seen”. In data set [4], the ΔTEWL value was found to be 7.0 and the “ΔTEWL value compared with the control aqueous solution / rough skin preventing/ameliorating effect” value is “significantly lower”.

With `O=C(O)CNC1CCCCC1` [N-cyclohexyl-glycine], in data set [1], the “Replica assessment (average of n = 5)” value was −1.5 and the “pore-shrinking effect” value is “seen”. Also, in data set [2], the “Evaluation (sensory irritation, class of average rating)” value is “A (average rating of less than 0.2)” and the “sensory irritation” value is “no problems”. Also, in data set [3], the “Macroscopic evaluation” value came out at 1.2; the “Parakeratosis value (average of four animals)” value came to 1.1; the “parakeratosis value / parakeratosis-inhibiting effect” value is given as “reduced”; the “rough skin preventing effect, based” value is “seen”. For the same molecule, in data set [4], the ΔTEWL value came to 6.4 and the “ΔTEWL value compared with the control aqueous solution / rough skin preventing/ameliorating effect” value is “significantly lower”.

Consider `CCN[C@H](C)C(=O)O` [N-ethyl-D-alanine], for which, in data set [1], the “Replica assessment (average of n = 5)” value is recorded as −0.5 and the “pore-shrinking effect” value is “seen”. In addition, in data set [2], the “Evaluation (sensory irritation, class of average rating)” value is on record as “A (average rating of less than 0.2)” and the “sensory irritation” value is “no problems”. In data set [3], the “Macroscopic evaluation” value is recorded as 1.6; the “Parakeratosis value (average of four animals)” value is listed as 1.7; the “parakeratosis value / parakeratosis-inhibiting effect” value is given as “reduced”; the “rough skin preventing effect, based” value is “seen”. In data set [4], the ΔTEWL value is listed as 8.3 and the “ΔTEWL value compared with the control aqueous solution / rough skin preventing/ameliorating effect” value is reported as “significantly lower”.

On to `CCN[C@H](CO)C(=O)O` [N-ethyl-D-serine], for which, in data set [1], the “Replica assessment (average of n = 5)” value is −1.2 and the “pore-shrinking effect” value was “seen”. For the same molecule, in data set [2], the “Evaluation (sensory irritation, class of average rating)” value is listed as “A (average rating of less than 0.2)” and the “sensory irritation” value is given as “no problems”. In data set [3], the “Macroscopic evaluation” value was 1.3; the “Parakeratosis value (average of four animals)” value stood at 1.3; the “parakeratosis value / parakeratosis-inhibiting effect” value is on record as “reduced”; the “rough skin preventing effect, based” value is recorded as “seen”. Further, in data set [4], the ΔTEWL value was determined as 7.9 and the “ΔTEWL value compared with the control aqueous solution / rough skin preventing/ameliorating effect” value is recorded as “significantly lower”.

With `CCN[C@@H](C)C(=O)O` [N-ethyl-L-alanine], in data set [1], the “Replica assessment (average of n = 5)” value is given as −0.4 and the “pore-shrinking effect” value was “seen”. Further, in data set [2], the “Evaluation (sensory irritation, class of average rating)” value is given as “A (average rating of less than 0.2)” and the “sensory irritation” value is given as “no problems”. Further, in data set [3], the “Macroscopic evaluation” value amounted to 1.5; the “Parakeratosis value (average of four animals)” value was determined as 1.4; the “parakeratosis value / parakeratosis-inhibiting effect” value is on record as “reduced”; the “rough skin preventing effect, based” value is “seen”. In data set [4], the ΔTEWL value is on record as 8.4 and the “ΔTEWL value compared with the control aqueous solution / rough skin preventing/ameliorating effect” value was “significantly lower”.
